Assay results published in patent publication US20260248800A1, “FERROPTOSIS INHIBITORS AND USES THEREOF” (UNIVERSITY OF OTTAWA, priority 2022, published 2026).
Where two headings read alike, the source gives them in different places.

Tests used:
[1] = H-bond acidity (α2^H) of the RTA by 1H NMR; assay type: physicochemical; details: estimated from the 1H NMR chemical shift difference of the amine proton in DMSO-d6 and benzene-d6
[2] = MeOAMVN-initiated co-autoxidation of STY-BODIPY and egg PC liposomes (FENIX); assay type: biochemical; details: for n (radical-trapping stoichiometry): MeOAMVN-initiated co-autoxidation of STY-BODIPY and egg PC liposomes
[3] = tested on: Pfa-1 mouse embryonic fibroblasts (MEFs); experiment: cells; details: Fibroblast, 5 h
[4] = apparent inhibition rate constant, MeOAMVN-initiated autoxidation of egg PC liposomes, determined by fluorescence
[5] = read-out: Pfa-1 MEF Ferroptosis EC50, RSL3-induced cell death (150 nM for 5 hours), AquaBluer
[6] = predicted from log kinh^0, α2^H and β2^H=0.69 using Eq. 4 (too reactive to be determined directly)
[7] = apparent inhibition rate constant, MeOAMVN-initiated autoxidation of egg PC liposomes, determined by absorbance (STY-BODIPY 10-20 μM, 565 nm)

| α2^H [1] | Compound | n (radical-trapping stoichiometry) [2] | kinh^lip [2, 4] | EC50 [3, 5] | kinh^lip [2, 6] | kinh^lip [2, 7] | EC50 ([3]; read-out: Pfa-1 MEF Ferroptosis EC50) | kinh^lip (predicted/estimated) ([2]; estimated from kinh^0 and effective β2^H of egg PC liposomes) |
| --- | --- | --- | --- | --- | --- | --- | --- | --- |
| 0.55 | Cc1ccc2c(c1)Oc1cc(C#N)ccc1N2 [Compound 21, 3-Methyl-7-cyanophenoxazine] | 3.5 ± 0.1 | (44 ± 6) 10^5 M^−1s^−1 | 0.022 ± 0.005 µM | – | – | – | – |
| 0.60 | Cc1ccc2c(c1)Oc1cc([N+](=O)[O-])ccc1N2 [Compound 16, 3-Methyl-7-nitrophenoxazine] | 3.8 ± 0.3 | – | 0.015 ± 0.001 µM | – | (23 ± 2)^e 10^5 M^−1s^−1 | – | – |
| 0.49 | c1ccc2c(c1)Nc1cc3ccccc3cc1O2 [Compound 4, 12H-Benzo[b]phenoxazine] | 2.4 ± 0.1 | (101 ± 12) 10^5 M^−1s^−1 | 0.0052 ± 0.0009 µM | – | – | – | – |
| 0.62 | O=[N+]([O-])c1ccc2c(c1)Oc1ccccc1N2 [Compound 15, 3-nitrophenoxazine] | 2.2 ± 0.1 | – | 0.043 µM | – | (10 ± 1)^e 10^5 M^−1s^−1 | – | – |
| 0.60 | COc1ccc2c(c1)Oc1cc([N+](=O)[O-])ccc1N2 [Compound 17, 3-nitro-7-methoxyphenoxazine] | 2.9 ± 0.2 | – | 0.031 ± 0.001 µM | – | (61 ± 4)e 10^5 M^−1s^−1 | – | – |
| 0.69 | N#Cc1ccc2c(c1)Oc1cc([N+](=O)[O-])ccc1N2 [Compound 23, 3-cyano-7-nitrophenoxazine] | – | – | 0.455 ± 0.019 µM | – | (1.6 ± 0.1)^e 10^5 M^−1s^−1 | – | – |
| 0.56 | N#Cc1ccc2c(c1)Oc1ccccc1N2 [Compound 20, 3-cyanophenoxazine] | 3.6 ± 0.1 | (27 ± 2) 10^5 M^−1s^−1 | 0.058 ± 0.001 µM | – | – | – | – |
| 0.40 | COc1ccc2c(c1)Oc1cc(OC)ccc1N2 [Compound 40, 3,7-dimethoxyphenoxazine] | – | – | 0.011 µM | 6530 ^f 10^5 M^−1s^−1 | – | – | 6e+06 M⁻¹ s⁻¹ |

More lines, now with the values behind:

| Compound | α2^H [1] | n (radical-trapping stoichiometry) [2] | kinh^lip [2, 4] | EC50 [3, 5] | kinh^lip [2, 6] | kinh^lip [2, 7] | EC50 ([3]; read-out: Pfa-1 MEF Ferroptosis EC50) | kinh^lip (predicted/estimated) ([2]; estimated from kinh^0 and effective β2^H of egg PC liposomes) |
| --- | --- | --- | --- | --- | --- | --- | --- | --- |
| Cc1cccc2c1Nc1c(C)cccc1O2 [Compound 36, 1,9-Dimethylphenoxazine] | 0.12 | – | – | 0.014 µM | 1150 ^f 10^5 M^−1s^−1 | – | – | – |
| c1ccc2c(c1)Nc1ccccc1[Se]2 [Compound 3, phenoselenazine, reference compound] | 0.36 | 2.3 ± 0.1 | – | 0.023 ± 0.002 µM | – | (56 ± 3)^e 10^5 M^−1s^−1 | – | – |
| N#Cc1ccc2c(c1)Oc1cc(C=O)ccc1N2 [Compound 14, 3-Cyano-7-formylphenoxazine] | 0.64 | – | (7.1 ± 0.1) 10^5 M^−1s^−1 | – | – | – | 0.24 ± 0.016 µM | – |
| Cc1cc(C)c2c(c1)Nc1cc(C)cc(C)c1O2 [Compound 37, 2,4,6,8-Tetramethylphenoxazine] | 0.39 | – | – | 0.0096 ± 0.0002 µM | 1500 ^f 10^5 M^−1s^−1 | – | – | – |
| O=[N+]([O-])c1ccc2c(c1)Oc1cc([N+](=O)[O-])ccc1N2 [Compound 19, 3,7-Dinitrophenoxazine] | 0.72 | – | – | 0.405 µM | – | (1.3 ± 0.1)^e 10^5 M^−1s^−1 | – | – |
| c1ccc2c(c1)Nc1cc3ccccc3cc1S2 [Compound 5, 12H-Benzo[b]phenothiazine, reference compound] | 0.40 | 1.9 ± 0.1 | (51 ± 3) 10^5 M^−1s^−1 | 0.0078 ± 0.0002 µM | – | – | – | – |
| Cc1cccc2c1Nc1c(C)cccc1S2 [Compound 31, 1,9-dimethylphenothiazine, reference compound] | 0.06 | 1.7 ± 0.1 | (98 ± 5) 10^5 M^−1s^−1 | 0.035 ± 0.002 µM | – | – | – | – |
| O=[N+]([O-])c1ccc2c(c1)Sc1ccccc1N2 [Compound 28, 3-nitrophenothiazine, reference compound] | 0.52 | 2.0 ± 0.1 | (5.3 ± 0.3) 10^5 M^−1s^−1 | 0.14 ± 0.018 µM | – | – | – | – |
